Like-named read-outs stand apart in the source and are kept apart here. Values belong to the molecule of their own block, whether it stands above or below them.
Experiments:
[1] = Pharmacokinetics of ATV; format: in vivo, rats; details: for Plasma concentrations vs control rats: ATV 10 mg/kg p.o., rats treated with RIF 30 mg/kg i.v.
[2] = Pharmacokinetics of ATV; format: in vivo, rats; details: for metabolite plasma concentrations vs control: ATV 10 mg/kg p.o., at 7.5, 15, 30 and 60 min after KTZ 20 mg/kg i.v.
[3] = plasma 4β-HC; cited from earlier work
[4] = Hepatic disposition of ATV and GCDCA-S in rats with ANIT-induced liver injury; format: in vivo; details: ANIT-induced liver injury (Fig. S15)
[5] = system: Cyp3a; experiment: Endogenous Cyp3a markers; format: in vivo, rats
[6] = system: Oatps; experiment: Hepatic uptake of ATV and GCDCA-S after 7 d oral RIF or KTZ; format: in vivo, rats; details: for hepatic uptake of ATV: inhibitor p.o. 7 d (RIF 30 mg/kg, KTZ 20 mg/kg), ATV 10 mg/kg p.o., 30 min
[7] = Plasma and hepatic concentration of KTZ after a single oral dose; format: in vivo, rats; details: for concentration at 1 h: rat, plasma, po; for Hepatic concentration: 1 h
[8] = system: Cyp3a; experiment: Plasma GCDCA-S, cholesterol and 4β-HC after intravenous KTZ
[9] = Liver function; format: in vivo, rats
[10] = system: HepaRG cells; experiment: Metabolism of ATV and cholesterol in HepaRG cells in presence of KTZ; format: cell-based, human; details: KTZ 10 µM, HepaRG cells (Fig. S14)
[11] = system: Oatps; experiment: Plasma GCDCA-S, cholesterol and 4β-HC after intravenous RIF; format: in vivo, rats
[12] = system: Oatps; details: read-out: IC50 for Oatps in vitro; cited from earlier work
[13] = Plasma concentration of RIF after a single oral dose; format: in vivo, rats; details: rat
[14] = system: Oatps; experiment: Endogenous substrates of Oatps; format: in vivo, rats
[15] = cited from earlier work
[16] = system: HepaRG cells; experiment: Uptake of ATV and GCDCA-S in HepaRG cells in presence of RIF; format: cell-based; details: Homo sapiens
[17] = system: Oatps; experiment: Reversibility of RIF inhibition of GCDCA-S uptake; format: in vivo, rats; details: RIF 30 mg/kg p.o. 7 d, then 7-d washout
[18] = KTZ single oral dose 20-80 mg/kg
[19] = RIF 30-120 mg/kg single oral dose
[20] = RIF 30-120 mg/kg single oral dose, 2 h

- Plasma concentrations vs control rats [1]: markedly higher
- metabolite plasma concentrations vs control [2]: significantly decreased
SMILES: CC(C)c1c(C(=O)Nc2ccccc2O)c(-c2ccccc2)c(-c2ccc(F)cc2)n1CCC(O)CC(O)CC(=O)O (stereo not drawn) [2-OH ATV, 2‑hydroxy-atorvastatin]

- Plasma concentrations vs control rats [1]: markedly higher
- metabolite plasma concentrations vs control [2]: significantly decreased
SMILES: CC(C)c1c(C(=O)Nc2ccc(O)cc2)c(-c2ccccc2)c(-c2ccc(F)cc2)n1CC[C@@H](O)C[C@@H](O)CC(=O)O [4-OH ATV, 4‑hydroxy-atorvastatin]

SMILES: CC(C)CCC[C@@H](C)[C@H]1CC[C@H]2[C@@H]3CC=C4[C@@H](O)[C@@H](O)CC[C@]4(C)[C@H]3CC[C@]12C [4β-HC, 4β-hydroxycholesterol]
- half-life [3]: ~17 days

SMILES: S=C=Nc1cccc2ccccc12 [ANIT, α-naphthylisothiocyanate]
- liver mRNA level of Oatp [4]: decreased

- blood concentration of 6β-HC ([5]; KTZ multiple-dose 7 d): increased
- plasma concentrations of 4β-HC ([5]; KTZ repeated oral dose 7 d, 20-80 mg/kg): markedly elevated
- hepatic 6β-HC levels [5, 18]: dose-dependently decreased
- plasma 6β-HC levels [5, 18]: not been influenced
- Hepatic 4β-HC levels ([5]; KTZ single oral dose 20-80 mg/kg (Fig. S5)): significantly increased
- concentration at 1 h ([7]; 20 mg/kg): 23.9 µM
- concentration at 1 h ([7]; 40 mg/kg): 31.4 µM
- concentration at 1 h ([7]; 80 mg/kg): 49.6 µM
- Hepatic concentration ([7]; single oral dose 20 mg/kg): 87.1 µmol/kg tissue
- Hepatic concentration ([7]; single oral dose 40 mg/kg): 119.2 µmol/kg tissue
- Hepatic concentration ([7]; single oral dose 80 mg/kg): 160.6 µmol/kg tissue
- KTZ level (plasma) ([2]; after single i.v. KTZ 20 mg/kg, over 0-360 min (Fig. S10)): above 1.5 µM
- plasma levels of cholesterol and its metabolite 4β-HC ([8]; after intravenous KTZ 20 mg/kg): not affected
- plasma concentrations of GCDCA-S ([8]; after intravenous KTZ 20 mg/kg (Fig. S9)): not changed
SMILES: CC(=O)N1CCN(c2ccc(OCC3COC(Cn4ccnc4)(c4ccc(Cl)cc4Cl)O3)cc2)CC1 (stereo not drawn) [KTZ, ketoconazole]
- hepatic uptake of ATV [6]: minimally impacted
- liver function (serum AST, ALT, ALP) ([9]; KTZ 20, 40, 80 mg/kg single or multiple oral dose (Fig. S2)): not affect liver function
- degradation ATV to 2-OH ATV and 4-OH ATV [10]: inhibited
- formation of 4β-HC [10]: did not affect

- plasma RIF level ([1]; after single i.v. RIF 30 mg/kg, over 0-360 min (Fig. S8)): above 5.5 µM
- concentration at 2 h ([13]; 30 mg/kg): 11.6 µM
- concentration at 2 h ([13]; 60 mg/kg): 22.4 µM
- concentration at 2 h ([13]; 120 mg/kg): 26.5 µM
- IC50 ([16]; read-out: IC50 for uptake of ATV): 1 µM
- IC50 ([16]; read-out: IC50 for uptake of GCDCA-S): 9.8 µM
SMILES: CO[C@H]1/C=C/O[C@@]2(C)Oc3c(C)c(O)c4c(O)c(c(/C=N/N5CCN(C)CC5)c(O)c4c3C2=O)NC(=O)/C(C)=C\C=C\[C@H](C)[C@H](O)[C@@H](C)[C@@H](O)[C@@H](C)[C@H](OC(C)=O)[C@@H]1C [RIF, rifampicin]
- hepatic uptake of GCDCA-S ([6]; RIF 30 mg/kg p.o. 7 d): decreased
- plasma concentration of GCDCA-S ([6]; RIF 30 mg/kg p.o. 7 d): significantly increased
- hepatic uptake of ATV [6]: greatly attenuated
- plasma concentrations of GCDCA-S ([11]; after intravenous RIF 30 mg/kg): significantly increased
- plasma concentration of cholesterol and 4β-HC ([11]; after intravenous RIF 30 mg/kg (Fig. S7)): did not affect
- IC50 [12]: 140 to 1700 nM
- hepatic uptake of CP I/III [14, 19]: did not inhibit
- plasma concentrations of CP I/III [14, 19]: did not affect
- biosynthesis of GCDCA-S from GCDCA in the liver ([14]; RIF 30-120 mg/kg single oral dose (Fig. S3)): did not affect
- hepatic uptake ratio of CA, GCA, GUDCA, TCDCA, TUDCA, THDCA, TLCA and GCDCA-S [14, 20]: decreased
- plasma CA, CDCA, HDCA, GCA, GUDCA, TCDCA, TDCA, THDCA and GCDCA-S levels [14, 20]: dose-dependently increased
- plasma unbound fraction [15]: 0.265
- liver function (serum AST, ALT, ALP) ([9]; RIF 30, 60, 120 mg/kg single oral dose (Fig. S2)): not affect liver function
- effect on the hepatic uptake of GCDCA-S after washout [17]: fully reversed
- plasma GCDCA-S level vs vehicle-treated rats after washout [17]: not significant different

Reference: article PMC8520055 (Asian Journal of Pharmaceutical Sciences, 2021)
